We go through 25 compounds from ChEMBL document CHEMBL1909294, “Translating clinical findings into knowledge in drug safety evaluation--drug induced liver injury prediction system (DILIps)” (PLoS Comput Biol, 2011).

Counter-ions that a name gives are not always drawn.

Data set [1] relates to Hepatotoxicity.
Data set [2] deals with Hepatotoxicity. This is another data set of the same source.
Data set [3] relates to Hepatotoxicity. The source holds these as a separate data set.
For data set [4], the system named is Hepatotoxicity. The source holds these as a separate data set.
In data set [5] the test system is Hepatotoxicity. The source holds these as a separate data set.
Data set [6] deals with Hepatotoxicity. This is another data set of the same source.
Data set [7] deals with Hepatotoxicity. The source holds these as a separate data set.
Data set [8] concerns Hepatotoxicity. The source holds these as a separate data set.
Data set [9] deals with Hepatotoxicity. This is another data set of the same source.
For data set [10], the system named is Hepatotoxicity. The source holds these as a separate data set.
The test system of data set [11] is Hepatotoxicity. This is another data set of the same source.
The subject of data set [12] is Hepatotoxicity. This is another data set of the same source.
Data set [13] has as its system Hepatotoxicity. The source holds these as a separate data set.
Data set [14] deals with Hepatotoxicity. This is another data set of the same source.
Data set [15] relates to Hepatotoxicity. The source holds these as a separate data set.
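Wherever DILI positive/negative is given: binary label assigned from drug-induced liver injury observed in pharmaceutical company records, forming the validation set for the DILIps prediction system.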
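Wherever HepSE Combined Scores is given: combined hepatic side effect score as listed in the training data of the Drug Induced Liver Injury Prediction System (DILIps).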
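Wherever HepSE bilirubinemia is given: bilirubinemia hepatic side effect score drawn from the DILIps training data, a prediction system for drug-induced liver injury; call rule not given here.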
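Wherever HepSE cholecystitis is given: Cholecystitis-related hepatic side effect score drawn from the DILIps (drug-induced liver injury prediction) training data set; call rule not given here.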
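Wherever HepSE cholelithiasis is given: hepatic side effect score for cholelithiasis, drawn from the DILIps training data for predicting drug-induced liver injury; call rule not given here.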
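Wherever HepSE cirrhosis is given: cirrhosis hepatic side effect score taken from the DILIps (drug-induced liver injury prediction) training set; call rule not given here.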
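Wherever HepSE elevated liver function tests is given: hepatic side effect score for raised liver function tests, as recorded in the DILIps training set used for predicting drug-induced liver injury.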
Wherever HepSE hepatic failure is given: call rule not given here.
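Wherever HepSE hepatic necrosis is given: score of hepatic side effects for hepatic necrosis, drawn from the training data of DILIps, a prediction system for drug-induced liver injury; call rule not given here.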
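Wherever HepSE hepatitis is given: Hepatitis-related hepatic side effect score taken from the training data of DILIps, a prediction system for drug-induced liver injury; call rule not given here.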
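Wherever HepSE hepatomegaly is given: hepatic side effect score for hepatomegaly, taken from the training set of the DILIps drug-induced liver injury prediction system; call rule not given here.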
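Wherever HepSE jaundice is given: Jaundice-related hepatic side-effect score drawn from the training data of the DILIps (drug-induced liver injury prediction system); call rule not given here.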
Wherever HepSE liver disease is given: call rule not given here.
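Wherever HepSE liver fatty is given: hepatic side effect score for fatty liver, taken from the DILIps training set for predicting drug-induced liver injury; call rule not given here.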
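Wherever HepSE liver function tests abnormal is given: hepatic side effect score taken from the DILIps (drug-induced liver injury prediction system) training data, here covering abnormal liver function test findings.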

For the compound `COc1cccc(OC)c1C(=O)N[C@@H]1C(=O)N2[C@@H]1SC(C)(C)[C@@H]2C(=O)[O-].[Na+]`, in data set [1], the DILI positive/negative turned out to be 1.

`Cl.NCCNCCNCCN` yielded a DILI positive/negative in [1] (Liver) of 1.

For the compound `Cl.Cl.OCCN1CCN(CC/C=C2/c3ccccc3Sc3ccc(C(F)(F)F)cc32)CC1`, the DILI positive/negative in data set [1] (Liver) was 0.

As to `Cl.Nc1cc(Cl)cc(Cl)c1`, the DILI positive/negative in data set [1] is given as 0.

`C=CC(O)CC#N` (stereo unspecified): the DILI positive/negative in data set [1] came to 0.

On to `O=C1NC(=O)C(O)(O)C(=O)N1`, for which, in data set [1], the DILI positive/negative amounted to 0.

As for `CCN(CC)Cc1cc(Nc2ccnc3cc(Cl)ccc23)ccc1O.Cl.Cl.Cl`, the DILI positive/negative in data set [1] (Liver) was found to be 1.

For `O=C1NCN(c2ccccc2)C12CCN(CCCC(c1ccc(F)cc1)c1ccc(F)cc1)CC2`, the DILI positive/negative in data set [1] stood at 1.

Consider `C=C1CC[C@@]2(O)[C@H]3Cc4ccc(O)c5c4[C@@]2(CCN3CC2CC2)[C@H]1O5`, for which the DILI positive/negative in [1] came to 0.

In turn, `S=C=Nc1cccc2ccccc12` [1-NAPHTHYLISOTHIOCYANATE] returned a DILI positive/negative in data set [1] of 1.

As for `CC(=O)Nc1ccc2c(c1)Cc1ccccc1-2` [2-ACETYLAMINOFLUORENE], in [1], the DILI positive/negative worked out at 1.

For `Cc1ccc2cc3c(ccc4ccccc43)c3c2c1CC3` [3-METHYLCHOLANTHRENE], the DILI positive/negative in data set [1] is 1.

Compound `CC(=O)CC(c1ccc([N+](=O)[O-])cc1)c1c(O)c2ccccc2oc1=O` (stereo unspecified) [ACENOCOUMAROL] had a DILI positive/negative in data set [1] of 1.

In data set [1], `CC(=O)c1ccc(S(=O)(=O)NC(=O)NC2CCCCC2)cc1` [ACETOHEXAMIDE] returned a DILI positive/negative of 1.

Consider `N[C@H](C(=O)O)[C@@H]1CC(Cl)=NO1` [ACIVICIN], for which the DILI positive/negative in data set [1] came out at 0.

Consider `COc1cc2c(c3oc(=O)c4c(c13)CCC4=O)[C@@H]1C=CO[C@@H]1O2` [AFLATOXIN], for which the DILI positive/negative in [1] is on record as 1.

`C=CCO` [ALLYL ALCOHOL] showed a DILI positive/negative in data set [1] of 1.

In data set [1], `C=CCOC=O` [ALLYL FORMATE] came in with a DILI positive/negative of 1.

The compound `Cl.O=C(O)CCCCCCNC1c2ccccc2CCc2ccccc21` [AMINEPTINE HYDROCHLORIDE] had a DILI positive/negative in data set [1] of 1.

Regarding `Nc1ccc(C(=O)[O-])cc1.[K+]` [AMINOBENZOATE POTASSIUM], the DILI positive/negative in data set [1] was 0.

In data set [1], `CCOC(=O)C1(c2ccccc2)CCN(CCc2ccc(N)cc2)CC1.Cl` [ANILERIDINE HYDROCHLORIDE] showed a DILI positive/negative of 0.

`O=C1O[C@H]([C@@H](O)CO)C(O)=C1O` [ASCORBIC ACID] returned a DILI positive/negative in [1] of 0.

In [1], `COc1ccc(CCN2CCC(Nc3nc4ccccc4n3Cc3ccc(F)cc3)CC2)cc1` [ASTEMIZOLE] showed a DILI positive/negative of 0.

In the case of VERTEPORFIN, the HepSE_bilirubinemia in [2] was found to be 0. In data set [3], this compound registered a HepSE_cholecystitis of 0. For the same compound, the HepSE_cholelithiasis in data set [4] stood at 0. Further, the HepSE_cirrhosis in [5] is 0. Also, the “HepSE_elevated liver function tests” value in data set [6] came out at 1. In [7], the HepSE_hepatic failure is on record as 0. The compound further registered a HepSE_hepatic necrosis in data set [8] of 0. In [9], this compound yielded a HepSE_hepatitis of 0. In addition, the HepSE_hepatomegaly in data set [10] came to 0. The compound also had a HepSE_jaundice in data set [11] of 0. In addition, the HepSE_liver disease in data set [12] is 0. For the same compound, the HepSE_liver fatty in [13] worked out at 0. In addition, the “HepSE_liver function tests abnormal” value in data set [14] is 0. In data set [15], the “HepSE_Combined Scores” value turned out to be 1.

In turn, VITAMIN B12 came in with a HepSE_bilirubinemia in [2] of 0. The same compound had a HepSE_cholecystitis in [3] of 0. In addition, the HepSE_cholelithiasis in [4] came out at 0. In addition, in data set [5], the HepSE_cirrhosis is 0. For the same compound, the “HepSE_elevated liver function tests” value in [6] is given as 0. In data set [7], the HepSE_hepatic failure was 0. Further, the HepSE_hepatic necrosis in data set [8] came to 0. Besides, the HepSE_hepatitis in data set [9] is 0. Moreover, the HepSE_hepatomegaly in [10] was 0. The HepSE_jaundice in data set [11] stood at 0. Also, the HepSE_liver disease in data set [12] amounted to 0. Moreover, in data set [13], the HepSE_liver fatty is 0. The “HepSE_liver function tests abnormal” value in data set [14] was determined as 0. The “HepSE_Combined Scores” value in [15] is 0.
